Consider 12 compounds from ChEMBL document CHEMBL1201862, “PubChem BioAssay data set” (2004).

Assay in all cases: inhibition of tumour cell growth, NCI panel, 48 h
Assay [1] relates to BT-549.
The test system of assay [2] is EKVX.
For assay [3], the system named is HCC 2998.
Assay [4] concerns HCT-15.
Assay [5] deals with HL-60.
In assay [6] the test system is MDA-N.
Assay [7] has as its system NCI-H23.
For assay [8], the system named is NCI-H460.
In assay [9] the test system is NCI-H522.
Assay [10] has as its system PC-3.
For assay [11], the system named is SF-539.
For assay [12], the system named is SK-MEL-28.
The test system of assay [13] is SN12C.
Assay [14] concerns SNB-19.
Assay [15] has as its system SNB-75.
Assay [16] concerns SR.
Assay [17] relates to SW-620.
In assay [18] the test system is UACC-62.
Assay [19] has as its system Malme-3M.

SMILES strings stand for the structures.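 Briefly, cells in 96-well plates were exposed to five compound concentrations for 48 h, and endpoints were estimated by linear interpolation. GI50 marks 50% less growth.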 Calls of active or inactive are those of the source. No stated cut-off is given here; in the data, active = GI50 up to about 1.1 µM and inactive = higher.

For the compound `N#Cc1cnn2cc[nH]c12`, the GI50 in [1] was > 100 µM (inactive); in [2], > 100 µM (inactive); in assay [3], > 100 µM (inactive); in [4], greater than 100 µM; in assay [5], > 100 µM (inactive); in assay [6] it was > 100 µM (inactive). Also, the GI50 was > 100 µM (inactive) in assay [7]; > 100 µM (inactive) in assay [8]; > 100 µM (inactive) in assay [9]; > 100 µM (inactive) in [10]; 10 µM (inactive) in [11]; > 100 µM (inactive) in assay [12]. In addition, the GI50 in assay [13], in assay [14], in [15], in [16], in assay [17] and in assay [18] was > 100 µM (inactive) throughout.
For `CCCCN(CCCC)C1(c2cc3ccccc3s2)CCCCC1.[O-][Cl+3]([O-])([O-])O`, the GI50 is 19.9 µM (inactive) in [1]; 21.1 µM (inactive) in assay [2]; 14.1 µM (inactive) in assay [3]; 15.5 µM in assay [4]; 17.7 µM (inactive) in [5]; 15.4 µM (inactive) in assay [6]. In addition, the GI50 in assay [7] is 15.5 µM (inactive); in assay [8] it was 13.5 µM (inactive); in assay [9], 12.6 µM (inactive); in assay [10], 17.9 µM (inactive); in assay [11], 19.1 µM (inactive); in assay [12], 18.4 µM (inactive). Besides, the GI50 in assay [13] was 21.4 µM (inactive); in assay [14] it was 18.7 µM (inactive); in [15] it was 16.8 µM (inactive); in [16], 16.3 µM (inactive); in [17], 15 µM (inactive); in [18], 15.6 µM (inactive).
For the compound `CC(CS(=O)(=O)Cc1ccccc1)C(N)=O` (configuration not stated), the GI50 in assay [1] was > 100 µM (inactive); in [2], > 100 µM (inactive); in [4], greater than 100 µM; in assay [5] it was > 100 µM (inactive); in [6] it was > 100 µM (inactive); in assay [19], > 100 µM (inactive). In addition, the GI50 in assay [7], in assay [8], in assay [9], in assay [10], in assay [11] and in [12] was > 100 µM (inactive) each time. In addition, the GI50 in assay [13], in assay [14], in assay [16], in assay [17] and in assay [18] was > 100 µM (inactive) in each case.
Regarding `O[C@H]1[C@@H]2OC[C@@H](O)[C@H](OCc3ccccc3)[C@@](COCc3ccccc3)(O2)[C@@H]1OCc1ccccc1`, the GI50 in assay [1] was 17.7 µM (inactive); in assay [2] it was 14.5 µM (inactive); in assay [4], 16.4 µM; in assay [5] it was 32.6 µM (inactive); in assay [6] it was 15.4 µM (inactive); in assay [19], 13.6 µM (inactive). Also, the GI50 was 17.1 µM (inactive) in assay [7]; 20.3 µM (inactive) in [8]; 13.7 µM (inactive) in [9]; 13.2 µM (inactive) in assay [10]; 15.5 µM (inactive) in [11]; 14.1 µM (inactive) in assay [12]. The GI50 in assay [13] was 14.7 µM (inactive); in assay [14], 16.4 µM (inactive); in assay [15] it was 2.39 µM (inactive); in assay [16], 38.5 µM (inactive); in assay [17], 18.5 µM (inactive); in [18] it was 11.4 µM (inactive).
With `N=C(N)NCCCC(NC(=O)c1c2ccccc2nc2ccccc12)C(=O)O` (configuration not stated), the GI50 in assay [1] is > 100 µM (inactive); in assay [2], > 100 µM (inactive); in [3], > 100 µM (inactive); in assay [4], greater than 100 µM; in assay [6], > 100 µM (inactive); in assay [7], > 100 µM (inactive). For the same compound, the GI50 in assay [8], in [9], in assay [10], in assay [11], in [12] and in assay [13] was > 100 µM (inactive) in each case. Moreover, the GI50 in assay [14], in assay [15], in assay [16], in assay [17] and in assay [18] was > 100 µM (inactive) each time.
Turning to `COc1cccc2c(N)c3cccc(C(=O)NCCN(C)C)c3nc12`, the GI50 was 1.19 µM (inactive) in [1]; 0.174 µM (active) in assay [2]; 0.179 µM (active) in assay [3]; 1.38 µM in [4]; 0.321 µM (active) in assay [6]; 0.0927 µM (active) in assay [19]. Besides, the GI50 in assay [7] is 0.132 µM (active); in assay [9] it was 0.0241 µM (active); in assay [10], 0.326 µM (active); in assay [11] it was 0.135 µM (active); in assay [12] it was 1.27 µM (inactive); in assay [13] it was 0.0389 µM (active). Also, the GI50 was 0.134 µM (active) in assay [14]; 0.0944 µM (active) in [15]; 0.0152 µM (active) in [16]; 0.0968 µM (active) in [17]; 0.357 µM (active) in [18].
`COc1cc(C2OC[C@@H]3C(=O)OC[C@H]23)cc(O)c1OC` (some centres not stated): the GI50 was > 100 µM (inactive) in assay [1]; > 100 µM (inactive) in assay [2]; > 100 µM (inactive) in assay [3]; greater than 100 µM in [4]; > 100 µM (inactive) in [5]; > 100 µM (inactive) in assay [6]. Moreover, the GI50 in assay [7], in [8], in assay [9], in [10], in [11] and in assay [13] was > 100 µM (inactive) in each case. Moreover, the GI50 in assay [14], in [15], in [16], in [17] and in [18] was > 100 µM (inactive) in each case.
As for `CC(=O)OCC(OC(C)=O)C(OC(C)=O)C(OC(C)=O)C(C=NN(C(C)=O)S(=O)(=O)c1ccc(/C=C2\NC(=O)N(C)C2=O)cc1)OC(C)=O` (configuration not stated), the GI50 is 33.9 µM (inactive) in assay [1]; 43 µM (inactive) in assay [2]; 30.5 µM (inactive) in assay [3]; 25.4 µM in assay [4]; 35.7 µM (inactive) in assay [6]; 25.5 µM (inactive) in [19]. Also, the GI50 in [7] is 34.5 µM (inactive); in [8], 22.1 µM (inactive); in assay [9], 23.7 µM (inactive); in assay [10], 40.1 µM (inactive); in assay [13], 27.8 µM (inactive); in assay [14], 45 µM (inactive). Also, the GI50 in assay [15] is 33.7 µM (inactive); in assay [16] it was 23.4 µM (inactive); in assay [17], 34.4 µM (inactive); in assay [18] it was 13.6 µM (inactive).
As for `O=C(Nc1ccc(Cl)cc1Cl)C1C(=O)OC2(CCCCC2)OC1=O`, the GI50 in [1] is 10.7 µM (inactive); in assay [2] it was 11.9 µM (inactive); in assay [3], 13 µM (inactive); in assay [4], 14.6 µM; in assay [5], 5.16 µM (inactive); in assay [6] it was 15.7 µM (inactive). In addition, the GI50 in [7] was 4.4 µM (inactive); in [8] it was 8.99 µM (inactive); in assay [9] it was 12 µM (inactive); in [10], 3.45 µM (inactive); in assay [11], 9.66 µM (inactive); in [12], 5.77 µM (inactive). Moreover, the GI50 in assay [13] was 14.7 µM (inactive); in [14], 5.26 µM (inactive); in [15] it was 10.4 µM (inactive); in assay [16], 5.97 µM (inactive); in assay [17], 5.52 µM (inactive); in assay [18], 11 µM (inactive).
With `O=c1c2ccccc2nc(N/N=C/c2ccc([N+](=O)[O-])cc2)n1-c1ccccc1`, the GI50 was 18 µM (inactive) in assay [1]; 20 µM (inactive) in assay [2]; greater than 100 µM in assay [4]; > 100 µM (inactive) in [5]; 57.5 µM (inactive) in assay [6]; 35.9 µM (inactive) in assay [19]. The GI50 was 61.1 µM (inactive) in assay [7]; > 100 µM (inactive) in [8]; 31.4 µM (inactive) in assay [9]; 17.3 µM (inactive) in assay [10]; 10.7 µM (inactive) in [12]; 91 µM (inactive) in assay [13]. In addition, the GI50 in [14] was 20.7 µM (inactive); in [15], 7.93 µM (inactive); in assay [16] it was > 100 µM (inactive); in assay [18], 27 µM (inactive).
As for `CN(/N=C/c1cccs1)c1ccc([N+](=O)[O-])cc1[N+](=O)[O-]`, the GI50 was > 100 µM (inactive) in [1]; > 100 µM (inactive) in assay [2]; > 100 µM (inactive) in assay [3]; greater than 100 µM in [4]; > 100 µM (inactive) in assay [5]; > 100 µM (inactive) in [6]. Also, the GI50 in [7], in assay [8], in assay [9], in assay [10], in assay [11] and in assay [12] was > 100 µM (inactive) each time. The GI50 in [13] is > 100 µM (inactive); in assay [14], > 100 µM (inactive); in [15], 77.8 µM (inactive); in assay [16] it was > 100 µM (inactive); in [17], > 100 µM (inactive); in [18] it was > 100 µM (inactive).
Turning to `O=C(Nc1ccccc1F)c1cc2ccc(O)cc2o/c1=N\c1cccc(F)c1`, the GI50 is 15.3 µM (inactive) in assay [1]; 11.1 µM (inactive) in assay [2]; 15.3 µM (inactive) in assay [3]; 10.2 µM in assay [4]; 5.28 µM (inactive) in assay [5]; 14.6 µM (inactive) in assay [6]. In addition, the GI50 in [19] was 21.6 µM (inactive); in assay [7], 2.16 µM (inactive); in [8], 6.35 µM (inactive); in assay [9], 2.37 µM (inactive); in assay [10], 18.6 µM (inactive); in assay [11], 17.5 µM (inactive). Besides, the GI50 in assay [12] was 12.3 µM (inactive); in [14], 15.9 µM (inactive); in [16], 12.9 µM (inactive); in assay [17], 9.04 µM (inactive); in assay [18], 11.8 µM (inactive).
